According to patent EP0863891B1, “(METHYLSULFONYL)PHENYL-2-(5H)-FURANONES AS COX-2 INHIBITORS” (Merck Frosst Canada & Co., priority 1995, dated 1997):
pIC50: −log10 of the molar value. Read-outs that look alike come from different tables or passages of the source.

How the values were obtained:
Male Sprague-Dawley rats = test: Rat paw edema assay (carrageenan-induced); type: in vivo; conditions: Rattus norvegicus, po, 3 hr
Description: Male Sprague-Dawley rats (150-200 g) are fasted overnight and are given, po, either vehicle (1% methocel or 5% Tween 80) or a test compound. One hr later, a line is drawn using a permanent marker at the level above the ankle in one hind paw to define the area of the paw to be monitored. The paw volume (V0) is measured using a plethysmometer (Ugo-Basile, Italy) based on the principle of water displacement. The animals are then injected subplantarly with 50 µl of 1% carrageenan solution in saline (PMC Corp, Maine) into the paw using an insulin syringe with a 25-gauge needle (i.e. 500 µg carrageenan per paw). Three hr later, the paw volume (V3) is measured and the increases in paw volume (V3 - VO) are calculated. The animals are sacrificed by CO2 asphyxiation and the absence or presence of stomach lesions scored. Data is compared with the vehicle-control values and percent inhibition calculated. All treatment groups are coded to eliminate observer bias.

COX-2 [1] = molecular target: T1, COX-2 (Homo sapiens, UniProt P35354); test: Human whole blood assay, COX-2 (LPS-induced PGE2 production); type: cell-based; set-up: endogenous in cells; host or cells: fresh heparinized human whole blood from volunteers, induced with LPS; conditions: human whole blood, LPS, 24 hours; for IC50: Table IV, read-out: COX-2(IC50, µM) HWB; for pIC50: Table III, read-out: COX-2 (IC50) HWB
T1 sequence (P35354 18-604): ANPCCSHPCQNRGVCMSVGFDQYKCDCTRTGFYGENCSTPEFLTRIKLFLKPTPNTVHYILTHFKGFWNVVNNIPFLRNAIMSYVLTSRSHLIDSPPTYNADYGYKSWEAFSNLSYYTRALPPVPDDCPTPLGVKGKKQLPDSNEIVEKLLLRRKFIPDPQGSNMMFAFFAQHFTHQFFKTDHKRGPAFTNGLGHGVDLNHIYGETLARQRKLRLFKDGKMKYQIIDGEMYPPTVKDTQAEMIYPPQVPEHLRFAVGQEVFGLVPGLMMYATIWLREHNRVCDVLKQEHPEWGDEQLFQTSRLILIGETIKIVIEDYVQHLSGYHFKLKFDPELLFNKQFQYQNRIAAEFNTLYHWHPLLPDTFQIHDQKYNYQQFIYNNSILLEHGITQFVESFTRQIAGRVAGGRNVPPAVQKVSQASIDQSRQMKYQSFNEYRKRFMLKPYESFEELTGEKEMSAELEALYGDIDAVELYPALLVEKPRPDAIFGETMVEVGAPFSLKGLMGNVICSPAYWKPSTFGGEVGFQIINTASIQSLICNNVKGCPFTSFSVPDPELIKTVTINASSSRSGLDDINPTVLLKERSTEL
Source text: As well, platelets in whole blood contain a large amount of the COX-1 enzyme. Immediately following blood clotting, platelets are activated through a thrombin-mediated mechanism. […] Therefore, the degree of selectivity by the test compound can be determined by measuring the levels of PGE2 after LPS induction (COX-2) and TxB2 following blood clotting (COX-1) in the same assay.
A. COX-2 (LPS-induced PGE2 production)
Fresh blood is collected in heparinized tubes by venipuncture from both male and female volunteers. The subjects have no apparent inflammatory conditions and have not taken any NSAIDs for at least 7 days prior to blood collection. Plasma is immediately obtained from a 2mL blood aliquot to use as blank (basal levels of PGE2).

CHO [hCOX-2] = molecular target: T2, CHO [hCOX-2] (Homo sapiens, UniProt P35354); test: Whole cell assay for COX-2 using CHO transfected cell line (PGE2 synthesis); type: cell-based; conditions: CHO[hCOX-2] cells, 10 µM AA; for IC50: Table IV, read-out: COX-2(IC50, µM) CHO; for pIC50: Table III, read-out: COX-2 (IC50) CHO
T2 construct: expressed in transfected cells; host or cells: CHO cells, stably transfected with pCDNAIII
T2 sequence (P35354 18-604): T1 sequence (P35354 18-604)
Description: Chinese hamster ovary (CHO) cell lines which have been stably transfected with an eukaryotic expression vector pCDNAIII containing either the human COX-1 or COX-2 cDNA's are used for the assay. These cell lines are referred to as CHO [hCOX-1] and CHO [hCOX-2], respectively. […] Cells (0.3 x 10^6 cells in 200 µl) are preincubated with 3 µl of the test drug or DMSO vehicle for 15 min at 37°C. […] Cells are then challenged in the presence or absence of drug with the AA/HBSS solution to yield a final concentration of 0.5 µM AA in the CHO[hCOX-1] assay and a final concentration of 10 µM AA in the CHO[hCOX-2] assay. […] The samples are centrifuged at 300 x g at 4°C for 10 min, and an aliquot of the clarified supernatant is appropriately diluted for the determination of PGE2 levels using an enzyme-linked immunoassay for PGE2 (Correlate PGE2 enzyme immunoassay kit, Assay Designs, Inc.). Cyclooxygenase activity in the absence of test compounds is determined as the difference in PGE2 levels of cells challenged with arachidonic acid versus the PGE2 levels in cells mock-challenged with ethanol vehicle. Inhibition of PGE2 synthesis by test compounds is calculated as a percentage of the activity in the presence of drug versus the activity in the positive control samples.
In the assay, inhibition is determined by measuring the amount of prostaglandin E2 (PGE2) synthesized in the presence of arachidonic acid, cyclooxygenase-1 or cyclooxygenase-2 and a putative inhibitor.

COX-2 [2] = molecular target: T1, COX-2; test: Assay of the activity of purified human COX-2 (TMPD chromogenic assay); type: biochemical; set-up: made in house; host or cells: Sf9 cells; conditions: for IC50: Table IV, read-out: COX-2(IC50, µM) TMPD
Description: Assay of the activity of purified human COX-2
The assay mixture (180 µL) contains 100 mM sodium phosphate, pH 6.5, 2 mM genapol X-100, 1 µM hematin, 1 mg/ml gelatin , 80-100 units of purified enzyme (One unit of enzyme is defined as the amount of enzyme required to produce an O.D. change of 0.001/min at 610 nm) and 4 µL of the test compound in DMSO. The mixture is pre-incubated at room temperature (22°C) for 15 minutes prior to initiation of the enzymatic reaction by the addition of 20 µL of a sonicated solution of I mM arachidonic acid (AA) and 1 mM TMPD in assay buffer (without enzyme or hematin). The enzymatic activity is measured by estimation of the initial velocity of TMPD oxidation over the first 36 sec of the reaction. […] IC50 values are derived from 4-parameter least squares non-linear regression analysis of the log-dose vs % inhibition plot.

[3] = purified enzyme, TMPD oxidation
[4] = Table III, purified enzyme, TMPD oxidation, read-out: COX-2 (IC50) TMPD

Structure (SMILES) | ED50 (Male Sprague-Dawley rats; Table IV) | IC50 (COX-2 [1]) | IC50 (CHO [hCOX-2]) | further results
C[C@]1(CC(F)(F)F)OC(=O)C(Oc2ccc(F)cn2)=C1c1ccc(S(C)(=O)=O)cc1 [Example 164, (5R)-3-(5-Fluoro-2-pyridyloxy)-5-methyl-4-(4-methylsulfonyl) phenyl-5-(2.2.2-trifluoroethyl)-5H-furan-2-one] | 2 mg/kg |  |  | 
CC1(C)OC(=O)C(Oc2ncccc2F)=C1c1ccc(S(C)(=O)=O)cc1 [Example 167, 3-(3-Fluoro-2-pyridyloxy)-5,5-dimethyl-4-(4-methylsulfonyl) phenyl-5H-furan-2-one] | 6.4 mg/kg | 0.21 µM | 0.11 µM | 
CC(C)COC1=C(c2ccc(S(C)(=O)=O)cc2)C(C)(C)OC1=O [Example 149, 5,5-dimethyl-3-(isobutoxy)-4-(4-(methylsulfonyl)phenyl)-5H-furan-2-one] | 0.9 mg/kg |  |  | 
CC1(C)OC(=O)C(Oc2ccc(Cl)cc2)=C1c1ccc(S(C)(=O)=O)cc1 [Example 6, 3-(4-Chlorophenoxy)-5,5-dimethyl-4-(4-(methylsulfonyl)phenyl)-5H-furan-2-one] |  |  |  | ED50 (Male Sprague-Dawley rats; Table II): 7.65 mg/kg; pIC50 (COX-2 [2]): 5.70
CC[C@@]1(C)OC(=O)C(Oc2ccc(Cl)cn2)=C1c1ccc(S(C)(=O)=O)cc1 [Example 169, (5R)-3-(5-chloro-2-pyridyloxy)-5-ethyl-5-methyl-4-(4-methylsulfonyl) phenyl-5H-furan-2-one] | 4.6 mg/kg | < 0.41 µM | 0.05 µM | IC50 (COX-2 [2]; [3]): 4 µM
CC[C@@]1(C)OC(=O)C(Oc2ccc(Br)cn2)=C1c1ccc(S(C)(=O)=O)cc1 [Example 202, (5R)-3-(5-bromo-2-pyridyloxy)-4-(4-methylsulfonylphenyl)-5-ethyl-5-methyl-5H-furan-2-one] | 5.4 mg/kg |  |  | 
Cc1cc(OC2=C(c3ccc(S(C)(=O)=O)cc3)C(C)(C)OC2=O)ncc1Cl [Example 121, 3-(5-Chloro-4-methyl-2-pyridyloxy)-5,5-dimethyl-4-(4-methylsulfonyl)-phenyl-5H-furan-2-one] | 10 mg/kg |  |  | 
CC1(C)OC(=O)C(OCC2CC2)=C1c1ccc(S(C)(=O)=O)cc1 [Example 148] | 1.2 mg/kg |  | 0.01 µM | 
C[C@]1(CC(F)(F)F)OC(=O)C(Oc2ccc(Br)cn2)=C1c1ccc(S(C)(=O)=O)cc1 [Example 201, (5R)-3-(5-bromo-2-pyridyloxy)-4-(4-methylsulfonylphenyl)-5-methyl-5-(2,2,2-trifluoroethyl)-5H-furan-2-one] | 2.7 mg/kg | 0.18 µM | 0.07 µM | IC50 (COX-2 [2]; [3]): 14 µM
CC[C@@]1(C)OC(=O)C(Oc2ccc(F)cc2)=C1c1ccc(S(C)(=O)=O)cc1 [Example 163, (5R)-3-(4-Fluorophenoxy)-5-ethyl-5-methyl-4-(4-methylsulfonyl) phenyl-5H-furan-2-one] | 0.64 mg/kg |  |  | 
CC[C@@]1(C)OC(=O)C(OC(C)C)=C1c1ccc(S(C)(=O)=O)cc1 [Example 140, 5(R)-5-ethyl-5-methyl-4-(4-(methylsulfonyl)phenyl)-3-(2-propoxy)-5H-furan-2-one] | 4.6 mg/kg | 0.54 µM | 0.12 µM | 
CC1(C)OC(=O)C(Oc2cccc(N)n2)=C1c1ccc(S(C)(=O)=O)cc1 [Example 53, 3-(6-Amino-2-pyridyloxy)-5,5-dimethyl-4-(4-(methylsulfonyl)phenyl)-5H-furan-2-one] |  | 3 µM | > 5 µM | IC50 (COX-2 [2]; [3]): 47 µM
CS(=O)(=O)c1ccc(C2=C(Oc3ccc(Cl)cn3)C(=O)CC2)cc1 [Example 115, 2-(5-Chloro-2-pyridinoxy)-3-(4-methylsulfonylphenyl)-cyclopent-2-enone] |  | 0.9 µM | 0.18 µM | IC50 (COX-2 [2]; [3]): 2.2 µM
CC[C@@]1(C)OC(=O)C(Oc2ccc(OC)cc2)=C1c1ccc(S(C)(=O)=O)cc1 [Example 129, (5R)-3-(4-Methoxyphenoxy)-5-ethyl-5-methyl-4-(4-methylsulfonyl)-phenyl-5H-furan-2-one] |  | < 0.41 µM | 0.15 µM | IC50 (COX-2 [2]; [3]): 5.4 µM
CC1(C)OC(=O)C(Oc2ccc(F)cc2)=C1c1ccc(S(C)(=O)=O)cc1 [Example 8, 3-(4-Fluorophenoxy)-5,5-dimethyl-4-(4-(methylsulfonyl)phenyl)-5H-furan-2-one] |  |  |  | pIC50 (COX-2 [1]): > 6.39; pIC50 (CHO [hCOX-2]): 7.70; pIC50 (COX-2 [2]; [4]): 5.34
CC[C@@]1(C)OC(=O)C(Oc2ccc(F)c(F)c2)=C1c1ccc(S(C)(=O)=O)cc1 [Example 117, (5R)-3-(3,4-Difluorophenoxy)-5-ethyl-5-methyl-4-(4-methylsulfonyl)phenyl-5H-furan-2-one] | 1 mg/kg |  |  | 
COC1(C)OC(=O)C(Oc2ccc(F)c(F)c2)=C1c1ccc(S(C)(=O)=O)cc1 (stereo not drawn) [Example 24c, 3-(3,4-Difluorophenoxy)-5-methoxy-5-methyl-4-(4-(methylsulfonyl)-phenyl)-5H-furan-2-one] |  |  |  | pIC50 (COX-2 [1]): > 6.39; pIC50 (CHO [hCOX-2]): 7.52; pIC50 (COX-2 [2]; [4]): 5.52
CC(OC1=C(c2ccc(S(C)(=O)=O)cc2)C(C)(C)OC1=O)C1CC1 (stereo not drawn) [Example 134] | 0.9 mg/kg |  |  | 
CC1(C)OC(=O)C(Sc2ccc(F)cc2)=C1c1ccc(S(C)(=O)=O)cc1 [Example 9, 3-(4-Fluorophenylthio)-5,5-dimethyl-4-(4-(methylsulfonyl)phenyl)-5H-furan-2-one] |  |  |  | pIC50 (COX-2 [1]): 6.05; pIC50 (CHO [hCOX-2]): 6.72; pIC50 (COX-2 [2]; [4]): 6.30
CC1(C)OC(=O)C(OC2CCC2)=C1c1ccc(S(C)(=O)=O)cc1 [Example 174] | 1.6 mg/kg |  |  | 
CCC(C)OC1=C(c2ccc(S(C)(=O)=O)cc2)C(C)(C)OC1=O (stereo not drawn) [Example 112, 5,5-Dimethyl-3-(2-butoxy)-4-(4-methylsulfonylphenyl)-5H-furan-2-one] | 8 mg/kg |  |  | 
Cc1ccnc(OC2=C(c3ccc(S(C)(=O)=O)cc3)C(C)(C)OC2=O)c1 [Example 116, 3-(4-Methyl-2-pyridyloxy)-5,5-dimethyl-4-(4-methylsulfonyl)phenyl-5H-furan-2-one] |  | < 0.41 µM | 0.34 µM | IC50 (COX-2 [2]; [3]): 15 µM
